# From article PMC10485820 (European Journal of Pharmaceutical Sciences, 2023)
# Key:
# [1] = Equilibrium solubility of the HSK7653 API in various media; type: physicochemical; details: 37 °C, thermodynamic from solid
# Procedure: Tests were performed by adding an excess amount of API to vials and stirring continuously at a speed of 200 rpm for 24 h at 37 °C. The API concentration was detected once per minute by an in situ fiber-optic ultraviolet (UV) dissolution real-time monitoring system (Pion Scientific Instruments, Billerica, MA, USA). All measurements were performed with n = 3.
# [2] = Particle size distribution of the API (laser diffraction); type: physicochemical; details: dry method
# Procedure: The determination was performed in a dry method with a Scirocco dry powder feeder, and the air was used as the dispersion agent ([Tari et al., 2015]). Meanwhile, the analysis results, d (0.1), d (0.5) and d (0.9) (defined as the diameter where 10%, 50% and 90% of population lies below this value), were directly output.
# [3] = Apparent permeability in Caco-2 monolayer cell lines; type: in vitro ADME; details: human, Caco-2
# Procedure: (§1) All experiments were performed in triplicate and analyzed by high-performance liquid chromatography with tandem mass spectrometry (HPLC-MS/MS). The apparent permeability coefficient (Papp) of each compound under the corresponding concentration was calculated according to Eq. (1) and listed as follows:(1) Papp=dQ/dt×1/A×C0 Where Papp was the apparent permeability coefficient (cm/s × 10^−6), dQ/dt (pmol/second) was the rate at which the compound appears in the receiver side, C0 (nM) was the initial concentration of the compound in the donor side, and A (cm^2) represented the surface area of the cell monolayer.
# [4] = tested on: Caco-2 monolayer cells; test: as above; type: in vitro ADME; details: from Papp A→B at 1, 5, 20 μM
# Procedure: as §1
# [5] = Blood-to-plasma partition ratio and fraction unbound in plasma; type: in vitro ADME; details: Measured (in vivo)
# Description: (§2) The development of the DLM was complex.
# [6] = Dissolution profile of HSK7653 tablets at pH 4.5 acetum; type: physicochemical
# Description: as §2
# [7] = Bioavailability in beagle dogs (unpublished); details: dog, in vivo, oral
# [8] = Biliary drainage study in rats (unpublished); type: in vivo
# [9] = Radioactivity recovery in feces after oral administration to rats (unpublished); type: in vivo
# [10] = biological target: T1, OAT1 (Homo sapiens, UniProt Q4U2R8); test: Preclinical transporter substrate assessment (unpublished); type: in vitro ADME
# T1 sequence (Q4U2R8 1-563): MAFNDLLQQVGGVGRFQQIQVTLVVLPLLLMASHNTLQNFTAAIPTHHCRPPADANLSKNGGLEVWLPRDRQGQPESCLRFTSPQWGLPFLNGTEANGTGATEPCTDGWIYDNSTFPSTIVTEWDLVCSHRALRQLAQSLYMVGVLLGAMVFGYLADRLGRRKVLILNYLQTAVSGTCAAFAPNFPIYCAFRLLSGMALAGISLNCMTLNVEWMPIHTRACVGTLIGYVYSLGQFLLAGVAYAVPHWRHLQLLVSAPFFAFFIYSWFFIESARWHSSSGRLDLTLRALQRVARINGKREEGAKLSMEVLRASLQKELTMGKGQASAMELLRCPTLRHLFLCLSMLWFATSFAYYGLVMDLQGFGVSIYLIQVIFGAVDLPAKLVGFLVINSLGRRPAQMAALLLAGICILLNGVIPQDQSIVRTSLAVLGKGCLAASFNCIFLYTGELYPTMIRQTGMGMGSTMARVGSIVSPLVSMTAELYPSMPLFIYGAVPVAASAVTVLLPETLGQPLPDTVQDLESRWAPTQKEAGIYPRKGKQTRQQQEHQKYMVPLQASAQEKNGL
# [11] = biological target: T2, OCT2 (Homo sapiens, UniProt O15244); test: as above; type: in vitro ADME
# T2 sequence (O15244 1-555): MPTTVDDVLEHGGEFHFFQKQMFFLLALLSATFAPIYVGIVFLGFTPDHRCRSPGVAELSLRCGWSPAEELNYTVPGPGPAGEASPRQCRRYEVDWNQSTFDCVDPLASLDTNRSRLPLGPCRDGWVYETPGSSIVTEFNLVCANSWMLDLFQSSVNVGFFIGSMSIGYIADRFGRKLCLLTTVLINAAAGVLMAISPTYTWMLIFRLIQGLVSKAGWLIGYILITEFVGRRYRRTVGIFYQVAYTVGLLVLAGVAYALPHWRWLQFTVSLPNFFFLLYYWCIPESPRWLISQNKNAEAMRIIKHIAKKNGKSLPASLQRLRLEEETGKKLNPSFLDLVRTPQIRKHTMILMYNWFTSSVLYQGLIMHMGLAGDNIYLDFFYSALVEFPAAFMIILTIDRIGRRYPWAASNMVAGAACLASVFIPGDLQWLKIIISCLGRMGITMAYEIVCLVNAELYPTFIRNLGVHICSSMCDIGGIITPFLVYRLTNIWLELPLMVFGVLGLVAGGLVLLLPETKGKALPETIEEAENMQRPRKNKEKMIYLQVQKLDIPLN
# [12] = biological target: MATE2-K (Homo sapiens, UniProt Q86VL8); test: as above; type: in vitro ADME
# MATE2-K, sequence (Q86VL8 1-566 isoform Q86VL8-3, species assumed): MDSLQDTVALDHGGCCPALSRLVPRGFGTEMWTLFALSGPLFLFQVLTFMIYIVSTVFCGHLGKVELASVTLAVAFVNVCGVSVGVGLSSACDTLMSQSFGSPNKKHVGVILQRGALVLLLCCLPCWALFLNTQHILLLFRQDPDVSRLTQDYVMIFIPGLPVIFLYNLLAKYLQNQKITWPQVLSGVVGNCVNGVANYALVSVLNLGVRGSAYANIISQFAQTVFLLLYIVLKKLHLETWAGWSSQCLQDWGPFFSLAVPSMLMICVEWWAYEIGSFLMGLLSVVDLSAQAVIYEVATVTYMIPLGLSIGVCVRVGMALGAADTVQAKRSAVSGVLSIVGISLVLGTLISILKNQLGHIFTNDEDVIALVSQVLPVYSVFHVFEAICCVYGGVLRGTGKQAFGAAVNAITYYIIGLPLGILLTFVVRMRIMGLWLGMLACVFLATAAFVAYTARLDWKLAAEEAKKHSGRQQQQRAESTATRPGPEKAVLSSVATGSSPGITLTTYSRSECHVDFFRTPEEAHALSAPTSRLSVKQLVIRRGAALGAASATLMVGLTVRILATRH
# [13] = biological target: P-glycoprotein (P-gp) (Homo sapiens, UniProt P08183); test: as above; type: in vitro ADME
# P-glycoprotein (P-gp), sequence (P08183 whole entry): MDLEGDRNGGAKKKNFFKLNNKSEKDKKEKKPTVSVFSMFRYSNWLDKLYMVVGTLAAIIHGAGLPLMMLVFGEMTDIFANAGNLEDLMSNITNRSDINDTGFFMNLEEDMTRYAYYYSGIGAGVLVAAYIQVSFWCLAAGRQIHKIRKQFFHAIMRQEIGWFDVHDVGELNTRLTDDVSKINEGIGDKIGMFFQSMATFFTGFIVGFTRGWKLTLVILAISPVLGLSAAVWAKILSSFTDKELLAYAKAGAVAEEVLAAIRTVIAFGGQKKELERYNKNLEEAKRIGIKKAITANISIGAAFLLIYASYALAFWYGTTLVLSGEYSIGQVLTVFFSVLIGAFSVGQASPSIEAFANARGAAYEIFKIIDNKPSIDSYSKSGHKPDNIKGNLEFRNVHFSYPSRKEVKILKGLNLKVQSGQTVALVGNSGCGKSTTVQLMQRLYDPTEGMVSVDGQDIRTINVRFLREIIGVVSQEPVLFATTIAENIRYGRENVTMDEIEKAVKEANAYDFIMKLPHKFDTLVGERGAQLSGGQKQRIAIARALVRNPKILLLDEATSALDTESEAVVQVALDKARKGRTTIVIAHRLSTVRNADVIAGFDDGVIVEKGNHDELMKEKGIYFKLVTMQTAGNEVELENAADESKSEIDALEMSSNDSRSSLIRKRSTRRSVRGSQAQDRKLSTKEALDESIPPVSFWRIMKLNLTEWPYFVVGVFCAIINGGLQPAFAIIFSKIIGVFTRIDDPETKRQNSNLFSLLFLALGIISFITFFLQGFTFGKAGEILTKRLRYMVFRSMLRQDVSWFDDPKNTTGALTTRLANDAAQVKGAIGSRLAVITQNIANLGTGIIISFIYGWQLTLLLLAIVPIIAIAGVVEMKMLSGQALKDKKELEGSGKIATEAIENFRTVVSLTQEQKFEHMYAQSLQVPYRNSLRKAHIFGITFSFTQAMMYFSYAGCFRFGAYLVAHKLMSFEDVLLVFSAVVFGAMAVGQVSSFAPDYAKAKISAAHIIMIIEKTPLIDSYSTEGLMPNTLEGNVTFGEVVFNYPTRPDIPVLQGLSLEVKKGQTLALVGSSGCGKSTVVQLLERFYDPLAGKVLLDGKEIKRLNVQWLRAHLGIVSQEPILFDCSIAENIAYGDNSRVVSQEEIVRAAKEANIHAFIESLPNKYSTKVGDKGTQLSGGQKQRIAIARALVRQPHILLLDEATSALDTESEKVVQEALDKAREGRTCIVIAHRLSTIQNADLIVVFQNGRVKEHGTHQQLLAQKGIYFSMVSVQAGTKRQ
# [14] = Multidose clinical study of biweekly HSK7653 IR tablets in T2DM patients (CTR20182505): pharmacokinetics; type: in vivo, human; details: biweekly administration of IR tablets
# [15] = Predicted by SIVA from dissolution profile in FaSSGF
# Description: (§3) Based on the results of the two-stage biorelevant dissolution test (see Fig. 4 in 3.2 section), the precipitation parameters in the DLM were not assessed, and the critical supersaturation ratio (CSC) and precipitation rate constant (PRC) were set to the minimum values, respectively.
# (§4) Furthermore, solubility parameters, representing the influence of pH and bile salts on the solubility, were estimated by Eq. (3) according to the experimental results.
# (§5) Accordingly, it was unnecessary to evaluate the precipitation parameters for the development of DLM, which (CSC and PCR) were set to minimum values in DLM. Most importantly, the dissolution parameters, such as heff and DLMs, were estimated by Eq. (4) from the dissolution profile in 300 mL FaSSGF medium. Meanwhile, the disintegration lag time of the formulation was evaluated with the method of Weibull function, so that the dissolution profile could be captured by Eq. (4).
# [16] = in vitro; details: human
# Procedure: Reactions were stopped by removing the plates from the incubator and mixing the incubation solution with 600 μL of ice-cold stop solution (acetonitrile) at the corresponding sampling time points.
# [17] = physchem
# Description: as §3, §4, §5
structure (smiles),measurement,setting,value
CS(=O)(=O)n1cc2c(n1)CN([C@@H]1C[C@H](N)[C@@H](c3cc(F)ccc3F)O[C@@H]1C(F)(F)F)C2 [HSK7653],solubility at 24 h,"[1]; fassgf or other biorelevant, FaSSGF medium",~5310 µg/mL
same,solubility at 24 h,[1]; FaSSIF medium,~342 µg/mL
same,solubility thermodynamic at 24 h,"[1]; pH 1.0 hydrochloric acid (HCl) solution, simulated gastric fluid, pH 1.0 HCl solution",11600 µg/mL
same,solubility thermodynamic at 24 h,"[1]; pH 8.0 phosphate buffer saline (PBS), aqueous buffer, pH 8.0 PBS",120 µg/mL
same,d (0.1),[2],1.313 μm
same,d (0.5),[2],3.288 μm
same,d (0.9),[2],8.163 μm
same,"Papp A→B at 2 h, 1 μM","[3]; 1 μM, 2 h, 37 °C",25.3 ×10⁻⁶ cm/s
same,"Papp A→B at 2 h, 5 μM","[3]; 5 μM, 2 h, 37 °C",29.3 ×10⁻⁶ cm/s
same,"Papp A→B at 2 h, 20 μM","[3]; 20 μM, 2 h, 37 °C",40.3 ×10⁻⁶ cm/s
same,Papp at 2 h,"[3]; average value of Papp at different incubation concentrations, apical pH: basolateral pH 7.4: 7.4, read-out: Caco-2 permeability, model input",31.6 ×10⁻⁶ cm/s
same,Permeability classification,[4],high-permeability compound
same,fraction unbound,[5],0.143
same,Fasted Dissolution (%),[6]; time 0.167 h,70.52%
same,Fasted Dissolution (%),[6]; time 0.333 h,95.97%
same,Fasted Dissolution (%),[6]; time 0.50 h,100.0%
same,bioavailability,[7],70.9%
same,Radioactivity recovered in biliary drainage study,[8],approximately 16.6%
same,Radioactivity recovered in feces,[9],approximately 62.1%
same,Transporter substrate assessment,[10],not a common transport substrate
same,Transporter substrate assessment,[11],not a common transport substrate
same,Transporter substrate assessment,[12],not a common transport substrate
same,Transporter substrate assessment,[13],not a common transport substrate
same,Accumulation,[14],no accumulation
same,DLM Scalar values,[15]; All segments,3.009
same,heff cut-off value,[15]; Hintz-Johnson,36.345 μm
same,half-life at 0.05 μM,[16]; primary human plated hepatocytes,12.2 days
same,hepatocyte CLint at 0.05 μM,"[16]; primary plated hepatocytes (cryopreserved, 10 donors mixed)",0.056 µL/min/1e6 cells
same,solubility,[17],7 µg/mL
